SMILES strings stand for the structures.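 Following 48 hours of exposure in 96-well plates, responses at five concentrations were used to interpolate endpoints linearly. TGI denotes the concentration required for complete inhibition of growth.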 Where a SMILES comes first, the peptide text is derived from it. Bridges are numbered along the chain shown (N, C = ends). [ ]: non-standard residue; d: D form. The star is where a group is joined. ξ: configuration not given here. X26 = O=C(/C=C/C=C/C=C/C=C/C=C/C(=O)*)NC1=C(O)CCC1=O; NMeA = CN[C@@H](C)C(=O)O; ξF = NC(Cc1ccccc1)C(=O)O; ξA = CC(N)C(=O)O

This passage reports TGI results from PubChem BioAssay (NCI).

Test systems include HCC-2998 colon; SF-268 CNS; MDA-MB-435; CCRF-CEM leukemia; NCI-H522 lung; LOX IMVI melanoma; OVCAR-3 ovarian; SR leukemia; SK-OV-3 ovarian; A498 renal.
Common to all, as to assay: growth of human tumour cells (NCI), 48 h

For `CC[n+]1[b-](C(C)(C)C)n(/N=C/C(C)(C)C)[b-](C(C)(C)C)[n+]1CC`, the TGI in the assay on HCC-2998 colon, in the assay on SF-268 CNS, with MDA-MB-435, with CCRF-CEM leukemia, in the assay on NCI-H522 lung and in the assay with LOX IMVI melanoma was greater than 100 µM throughout. In addition, the TGI in the assay on OVCAR-3 ovarian and in the assay with SR leukemia was greater than 100 µM in each case.
Take `O=C(O)C(SC1=NNC2(C(=O)N1)c1ccccc1-c1ccccc12)SC1=NNC2(C(=O)N1)c1ccccc1-c1ccccc12`: the TGI with HCC-2998 colon, in the assay on SK-OV-3 ovarian, in the assay with SF-268 CNS, with MDA-MB-435, in the assay on CCRF-CEM leukemia and in the assay on A498 renal was greater than 10 µM each time. In addition, the TGI with NCI-H522 lung, in the assay with LOX IMVI melanoma and in the assay with OVCAR-3 ovarian was greater than 10 µM in each case.
Turning to `N#CCc1nc(-c2ccccc2)n[nH]1`, the TGI in the assay with HCC-2998 colon, in the assay with SK-OV-3 ovarian, in the assay on SF-268 CNS, in the assay on MDA-MB-435, in the assay on CCRF-CEM leukemia and in the assay on NCI-H522 lung was greater than 100 µM throughout. Moreover, the TGI with LOX IMVI melanoma, in the assay on OVCAR-3 ovarian and with SR leukemia was greater than 100 µM throughout.
In the case of `O=C(CNc1c(Cl)cccc1Cl)NC1C=Cc2ccc(S(=O)(=O)Nc3c(Cl)cccc3Cl)cc2C1=O` (configuration not stated), the TGI with HCC-2998 colon, with SK-OV-3 ovarian, in the assay on SF-268 CNS, in the assay with MDA-MB-435, in the assay with CCRF-CEM leukemia and in the assay on NCI-H522 lung was greater than 100 µM throughout. Also, the TGI in the assay on LOX IMVI melanoma, in the assay on OVCAR-3 ovarian and with SR leukemia was greater than 100 µM in each case.
With `Cc1c(N2C(=O)C(Cl)C2c2ccc(Cl)cc2)c(=O)n(-c2ccccc2)n1C` (configuration not stated), the TGI is greater than 100 µM with SK-OV-3 ovarian; greater than 100 µM in the assay with SF-268 CNS; 59.8 µM with MDA-MB-435; greater than 100 µM in the assay on CCRF-CEM leukemia; greater than 100 µM in the assay with NCI-H522 lung; 91.6 µM with LOX IMVI melanoma. In addition, the TGI in the assay with OVCAR-3 ovarian and with SR leukemia was greater than 100 µM throughout.
`O=C(Nc1ccccc1F)c1cc2ccc(O)cc2oc1=Nc1ccccc1F`: the TGI in the assay with HCC-2998 colon was 8.04 µM; in the assay on SK-OV-3 ovarian, 42.1 µM; with SF-268 CNS it was 5.26 µM; in the assay on MDA-MB-435, 4.24 µM; with CCRF-CEM leukemia, 3.79 µM; with NCI-H522 lung, 3.09 µM. Further, the TGI with LOX IMVI melanoma was 4.16 µM; with OVCAR-3 ovarian, 3.83 µM; in the assay with SR leukemia, 5.37 µM.
`CC(=O)O[C@H]1C(=O)[C@@]2(C)[C@H]([C@H](OC(=O)c3ccc(F)cc3)[C@]3(O)C[C@H](OC(=O)[C@H](O)[C@@H](NC(=O)c4ccccc4)c4ccccc4)C(C)=C1C3(C)C)[C@]1(OC(C)=O)CO[C@@H]1C[C@@H]2O`: the TGI with HCC-2998 colon is 0.174 µM; in the assay on SF-268 CNS, greater than 25 µM; in the assay on MDA-MB-435 it was 0.0049 µM; with A498 renal, greater than 6.73 µM; with NCI-H522 lung it was 0.585 µM; in the assay with LOX IMVI melanoma it was 5.56 µM. This compound displayed a TGI with OVCAR-3 ovarian of 0.0437 µM.
For the compound `Cc1ccc(CC[P+](=O)CCc2ccc(C)nc2)cn1`, the TGI in the assay with HCC-2998 colon, in the assay with SK-OV-3 ovarian, in the assay on SF-268 CNS, in the assay on MDA-MB-435, with CCRF-CEM leukemia and in the assay on NCI-H522 lung was greater than 100 µM in each case. In addition, the TGI in the assay with LOX IMVI melanoma, in the assay with OVCAR-3 ovarian and with SR leukemia was greater than 100 µM each time.
Take `O=C(CN(c1ccccc1)c1ccccc1)N1c2ccccc2C2C=CC=CC21` (configuration not stated): the TGI in the assay with HCC-2998 colon was 22.7 µM; in the assay with SK-OV-3 ovarian it was greater than 56.4 µM; with SF-268 CNS, greater than 57 µM; in the assay with CCRF-CEM leukemia it was greater than 36.3 µM; with A498 renal, 77.4 µM; with NCI-H522 lung, 49 µM. Besides, the TGI in the assay with LOX IMVI melanoma was 44.5 µM; in the assay with OVCAR-3 ovarian it was 44.6 µM; with SR leukemia, greater than 21.4 µM.
In the case of `S=c1[nH]c2ccc(Br)cc2c(=S)s1`, the TGI in the assay with HCC-2998 colon was 63.7 µM; with SK-OV-3 ovarian it was greater than 100 µM; in the assay with SF-268 CNS, greater than 100 µM; with MDA-MB-435, 67.2 µM; with CCRF-CEM leukemia, greater than 100 µM; in the assay with NCI-H522 lung, 77.7 µM. Further, the TGI in the assay with LOX IMVI melanoma, in the assay on OVCAR-3 ovarian and with SR leukemia was greater than 100 µM throughout.
Consider `O=c1[nH]cnc2c1ncn2[C@@H]1C[C@@H]1CO`, for which the TGI with HCC-2998 colon, with SF-268 CNS, in the assay on MDA-MB-435, with CCRF-CEM leukemia, in the assay with NCI-H522 lung and in the assay with LOX IMVI melanoma was greater than 100 µM throughout. For the same compound, the TGI with SR leukemia was greater than 100 µM.
For `Nc1nc(Cl)cc(NCC2(CO)CCC(CCc3ccccc3)C2)n1` (configuration not stated), the TGI in the assay with HCC-2998 colon was determined as 33.8 µM; in the assay on SK-OV-3 ovarian, 35.1 µM; in the assay on SF-268 CNS, 35.6 µM; with MDA-MB-435, 28.3 µM; in the assay with CCRF-CEM leukemia, 40.1 µM; in the assay on A498 renal, 26.8 µM. Further, the TGI worked out at 25.6 µM in the assay on NCI-H522 lung, 26.3 µM in the assay on LOX IMVI melanoma and 28.9 µM in the assay with OVCAR-3 ovarian.
For the compound `COc1ccc(-c2c3c([nH]c(=S)c2C#N)CC(C)(C)CC3=O)cc1`, the TGI in the assay with HCC-2998 colon, in the assay with SF-268 CNS, with CCRF-CEM leukemia, in the assay on A498 renal, with NCI-H522 lung and with LOX IMVI melanoma was greater than 100 µM in each case. The TGI in the assay with OVCAR-3 ovarian and in the assay on SR leukemia was greater than 100 µM each time.
With `O=c1ccn(C2OC(CO)C(P(=O)(O)O)C2O)c(=O)[nH]1` (configuration not stated), the TGI with HCC-2998 colon, in the assay with SF-268 CNS, in the assay on CCRF-CEM leukemia, with A498 renal, with NCI-H522 lung and in the assay with LOX IMVI melanoma was greater than 100 µM throughout. Moreover, the TGI in the assay with OVCAR-3 ovarian and in the assay with SR leukemia was greater than 100 µM each time.
Turning to `CC1NC(=O)[C@H](C)N(C)C(=O)[C@@H]2CCCN2C(=O)[C@@H](NC(=O)C(Cc2ccccc2)NC(=O)/C=C/C=C/C=C/C=C/C=C/C(=O)NC2=C(O)CCC2=O)COC(=O)[C@@H]2CCCN2C1=O` (some centres not stated) (X26-[ξF]SP[NMeA][ξA]P; ester 2-C), the TGI in the assay on HCC-2998 colon, in the assay with SK-OV-3 ovarian, in the assay on SF-268 CNS, in the assay on MDA-MB-435, with CCRF-CEM leukemia and with NCI-H522 lung was greater than 100 µM in each case. In addition, the TGI in the assay with LOX IMVI melanoma, in the assay with OVCAR-3 ovarian and with SR leukemia was greater than 100 µM in each case.
